Experimental data as given in ChEMBL document CHEMBL4616662, “Cyperane-Type and Related (Nor)Sesquiterpenoids from the Root Bark of Acanthopanax gracilistylus and Their Inhibitory Effects on Nitric Oxide Production” (J Nat Prod, 2020).

The compounds below were run on RAW264.7 (assay: Antiinflammatory activity in mouse RAW264.7 cells assessed as inhibition of LPS-induced nitirc oxide production pretreated followed by LPS challenge and measured after 24 hrs by Griess assay). Conditions: not given.
Type: functional, cell-based

| Structure (SMILES) | IC50 [µM] |
| --- | --- |
| CC(=O)[C@@H]1CC[C@@]2(C)CCC(=O)O[C@@]2(C(C)=O)C1 | 2.6 |
| CC(=O)[C@]12C=C([C@@](C)(O)CO)CC[C@@]1(C)CC[C@H]2O | 6.8 |
| CC(=O)[C@@]12C=C([C@](C)(O)CO)CC[C@]1(C)CC[C@@H]2O | 7.7 |
| COC(=O)[C@@H](N)CCCNC(=N)N[N+](=O)[O-] [L-NAME] | 58.4 |

Each compound was assayed on RAW264.7 (assay: Cytotoxicity against LPS-stimulated mouse RAW264.7 cells at 6.25 to 100 uM by MTT assay). Conditions: raw264.7, 100 µM.
Type: cell-based

| Structure (SMILES) | Activity |
| --- | --- |
| CC(=O)[C@@H]1CC[C@@]2(C)CCC(=O)O[C@@]2(C(C)=O)C1 | Non-Toxic |
| CC(=O)[C@]12C=C([C@@](C)(O)CO)CC[C@@]1(C)CC[C@H]2O | Non-Toxic |
| CC(=O)[C@@]12C=C([C@](C)(O)CO)CC[C@]1(C)CC[C@@H]2O | Non-Toxic |
